In patent publication US5739145A (priority 1993, dated 1998):
Where a name gives a salt, the structure may show the parent alone.

Columns and labels:
[1] = tested on: mouse vas deferens; assay: Opioid activity test using extracted mouse vas deferens sample (inhibition of electrically stimulated contraction); type: cell-based, mouse (male ddy)
Description: (§1) Male ddy mice were provided for experimentation. Vas deferens extracted from the mice were suspended in a Magnus tube filled with a 37° C.-heated Krebes-Henseleit solution ([…], 4.7 mM KCl, 2.5 mM CaCl2, 1.1 mM KH2 PO4, 25 mM NaHCO3, 11 mM glucose) and aerated with 5% carbon dioxide and 95% oxygen. A 0.1 Hz, 5.0 mS electrical stimulus was applied via an annular platinum electrode. The tissue contraction was recorded on a polygraph using an isometric transducer.
(§2) Then, the sample was adequately washed with a nutrient solution, and when the contraction reaction stabilized, the μ-antagonist naloxone, the δ-antagonist NTI or the κ-antagonist norBNI was added thereto, and after about 20 minutes the test compound was once again added cumulatively. The Ke value was calculated from the difference in potency between the two, according to the following equation. Ke=[concentration of added antagonist]/(IC50 ratio -1) IC50 ratio=IC50 value in presence of antagonist/IC50 value in absence of antagonist

[2] = biological target: T1, δ opioid receptor (Mus musculus, UniProt P32300); assay: Antagonism by the δ-antagonist NTI in extracted mouse vas deferens; type: cell-based; details: Ke=[antagonist]/(IC50 ratio -1)
T1 construct: from tissue; host or cells: vas deferens of male ddy mice
T1 sequence (P32300 whole entry): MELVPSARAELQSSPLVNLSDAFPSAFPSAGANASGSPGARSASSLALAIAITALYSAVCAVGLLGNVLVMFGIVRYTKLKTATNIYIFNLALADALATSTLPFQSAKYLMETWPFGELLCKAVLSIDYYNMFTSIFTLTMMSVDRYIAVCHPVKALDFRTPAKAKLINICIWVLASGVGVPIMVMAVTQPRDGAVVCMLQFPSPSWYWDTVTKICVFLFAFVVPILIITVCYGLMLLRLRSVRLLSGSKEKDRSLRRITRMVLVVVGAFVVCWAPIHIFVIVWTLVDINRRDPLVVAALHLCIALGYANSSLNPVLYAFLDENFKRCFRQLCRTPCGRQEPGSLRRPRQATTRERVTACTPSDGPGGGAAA
Description: as §1, §2

[3] = biological target: T2, κ-receptors (Mus musculus, UniProt P33534); assay: Antagonism by the κ-antagonist norBNI in extracted mouse vas deferens; type: cell-based; details: Ke=[antagonist]/(IC50 ratio -1)
T2 construct: from tissue; host or cells: vas deferens of male ddy mice
T2 sequence (P33534 whole entry): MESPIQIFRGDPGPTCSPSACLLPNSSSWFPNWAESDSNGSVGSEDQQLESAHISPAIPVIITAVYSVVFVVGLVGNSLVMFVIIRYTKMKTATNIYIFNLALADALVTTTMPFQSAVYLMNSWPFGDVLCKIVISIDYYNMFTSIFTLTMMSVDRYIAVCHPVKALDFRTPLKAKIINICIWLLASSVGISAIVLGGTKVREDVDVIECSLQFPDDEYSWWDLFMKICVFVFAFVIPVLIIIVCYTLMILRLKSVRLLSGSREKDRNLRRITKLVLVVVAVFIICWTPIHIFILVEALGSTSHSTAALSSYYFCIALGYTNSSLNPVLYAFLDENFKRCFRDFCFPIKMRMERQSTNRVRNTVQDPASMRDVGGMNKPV
Description: as §1, §2

[4] = tested on: guinea pigs (cough by mechanical airway stimulation); assay: Antitussive effect by guinea pig airway stimulation method; type: in vivo, guinea pig (male Hartley); details: for ED50: Cavia porcellus, sc, guinea pig airway stimulation; for Number of animals exhibiting coughing/number of animals tested: guinea pig, s.c.
Description: A group of five male Hartley guinea pigs (5 weeks old) with a body weight of 330-380 g were used. They were fixed in the supine position under light anesthesia by intraperitoneal administration of 15 mg/kg of pentobarbital sodium, and the necks were cut open to expose the airways. A small hole was opened in each exposed airway, from which stimulating hair was inserted about 3 cm into the airway at a 30° angle to stimulate the wall of the airway, and the occurrence or lack of coughing was noted. […] The test compounds were subcutaneously administered, and the stimulation was performed twice at each point 15, 30, 60 and 120 minutes after administration, pronouncing effective those cases in which no coughing occurred either time.

[5] = tested on: rats (capsaicin-induced cough); assay: animal or person; type: in vivo; details: Rattus norvegicus, ip, 0.5 h
[6] = biological target: T3, μ-receptors (Mus musculus, UniProt P42866); assay: Antagonism by the μ-antagonist naloxone in extracted mouse vas deferens; type: cell-based; details: Ke=[antagonist]/(IC50 ratio -1)
T3 construct: from tissue; host or cells: vas deferens of male ddy mice
T3 sequence (P42866 whole entry): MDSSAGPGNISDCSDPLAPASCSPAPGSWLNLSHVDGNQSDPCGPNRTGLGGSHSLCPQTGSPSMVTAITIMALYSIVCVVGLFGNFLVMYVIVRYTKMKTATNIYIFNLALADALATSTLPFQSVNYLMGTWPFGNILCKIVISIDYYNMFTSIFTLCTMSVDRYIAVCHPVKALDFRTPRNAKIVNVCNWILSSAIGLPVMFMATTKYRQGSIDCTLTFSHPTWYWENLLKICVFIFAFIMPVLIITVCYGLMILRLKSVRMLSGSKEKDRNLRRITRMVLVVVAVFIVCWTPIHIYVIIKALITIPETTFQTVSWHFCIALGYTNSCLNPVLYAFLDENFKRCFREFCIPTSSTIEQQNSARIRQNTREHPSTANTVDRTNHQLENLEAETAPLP
Description: as §1, §2

Compound | IC50 [1] [nM] | Ke NTI [2] [nM] | Ke norBNI [3] [nM] | ED50 [4] [µg/kg] | Number of animals exhibiting coughing/number of animals tested ([4]; dosage 1 μg/kg) | Number of animals exhibiting coughing/number of animals tested ([4]; dosage 3 μg/kg) | Number of animals exhibiting coughing/number of animals tested ([4]; dosage 30 μg/kg) | ED50 [5] [µg/kg] | Ke Naloxone [6] [nM]
CN(C(=O)/C=C/c1cccc(C(F)(F)F)c1)[C@@H]1CC[C@@]2(O)[C@H]3Cc4ccc(O)c5c4[C@@]2(CCN3CC2CC2)[C@H]1O5 [Compound 4, 17-cyclopropylmethyl-4,5α-epoxy-3,14β-dihydroxy-6β-(N-methyl-3-trifluoromethylcinnamamido)morphinan.tartrate] | 0.468 | 291 | 3.20 | 2.6 | 1/5 | 3/5 | 5/5 | 107 | –
CN(C(=O)/C=C/c1ccoc1)[C@@H]1CC[C@@]2(O)[C@H]3Cc4ccc(O)c5c4[C@@]2(CCN3CC2CC2)[C@H]1O5 [Compound 5, 17-cyclopropylmethyl-4,5α-epoxy-3,14β-dihydroxy-6β-[N-methyl-trans-3-(3-furyl)acrylamido] morphinan.HCl] | 0.42 | – | 0.164 | 3.7 | 2/5 | 3/5 | 5/5 | 4.3 | –
Cc1cccc(/C=C/C(=O)N(C)[C@@H]2CC[C@@]3(O)[C@H]4Cc5ccc(O)c6c5[C@@]3(CCN4CC3CC3)[C@H]2O6)c1 [Compound 6, 17-cyclopropylmethyl-4,5α-epoxy-3,14β-dihydroxy-6β-(N-methyl-3-methylcinnamamido)morphinan.HCl] | 0.32 | 64.5 | 1.95 | 12.5 | 1/5 | 1/5 | 4/5 | – | 1780
CN(CCc1ccc(Cl)c(Cl)c1)[C@@H]1CC[C@@]2(O)[C@H]3Cc4ccc(O)c5c4[C@@]2(CCN3CC2CC2)[C@H]1O5 [Compound 7, 17-cyclopropylmethyl-4,5α-epoxy-3,14β-dihydroxy-6β-[N-methyl-N-2-(3,4-dichlorophenyl)ethylamino]morphinan.1.9 HCl] | – | – | – | – | – | – | – | 437 | –
CN(C(=O)OCc1ccccc1)[C@@H]1CC[C@@]2(O)[C@H]3Cc4ccc(O)c5c4[C@@]2(CCN3CC2CC2)[C@H]1O5 [Compound 8, 17-cyclopropylmethyl-4,5α-epoxy-3,14β-dihydroxy-6β-(N-methyl-benzyloxycarbamido)morphinan.HCl] | 0.42 | 532 | 1.00 | – | – | – | – | 1.79 | –
O=C(CCc1ccccc1)O[C@H]1CC[C@@]2(O)[C@H]3Cc4ccc(O)c5c4[C@@]2(CCN3CC2CC2)[C@H]1O5 [Compound 9, 17-cyclopropylmethyl-4,5α-epoxy-3,14β-dihydroxy-6α-(3-phenylpropionyloxy)morphinan.tartrate] | – | – | – | – | – | – | – | 3300 | –
CN(C(=O)/C=C/c1cccc(OC(F)(F)F)c1)[C@@H]1CC[C@@]2(O)[C@H]3Cc4ccc(O)c5c4[C@@]2(CCN3CC2CC2)[C@H]1O5 [Compound 10, 17-cyclopropylmethyl-4,5α-epoxy-3,14β-dihydroxy-6β-(N-methyl-3-trifluoromethoxycinnamamido)morphinan.tartrate] | – | 17.6 | 0.17 | – | – | – | – | 2.1 | 10.8
Cc1cccc(C#CC(=O)N(C)[C@@H]2CC[C@@]3(O)[C@H]4Cc5ccc(O)c6c5[C@@]3(CCN4CC3CC3)[C@H]2O6)c1 [Compound 11, 17-cyclopropylmethyl-4,5α-epoxy-3,14β-dihydroxy-6β-[N-methyl-3-(3-methylphenyl)propiolamido]morphinan.HCl] | – | – | – | – | – | – | – | 13.5 | –
COc1ccc2c3c1O[C@H]1[C@H](N(C)C(=O)/C=C/c4ccoc4)CC[C@@]4(O)[C@@H](C2)N(CC2CC2)CC[C@]314 [Compound 12, 17-cyclopropylmethyl-4,5α-epoxy-3-methoxy-14β-hydroxy-6β-[N-methyl-trans-3-(3-furyl)acrylamido]morphinan.HCl] | – | – | – | – | – | – | – | 0.12 | –
COc1ccc2c3c1O[C@H]1[C@H](N(C)C(=O)C#Cc4cccc(C)c4)CC[C@@]4(O)[C@@H](C2)N(CC2CC2)CC[C@]314 [Compound 13, 17-cyclopropylmethyl-4,5α-epoxy-3-methoxy-14β-hydroxy-6β-[N-methyl-3-(3-methylphenyl)propiolamido]morphinan.HCl] | – | – | – | – | – | – | – | 12.1 | –
